According to publication PMC8344021, “Discovery of Small Molecule Bak Activator for Lung Cancer Therapy” (Theranostics, 2021):

Tests used:
[1] = system: mitochondria isolated from A549 cells; assay: Cyt c release from isolated mitochondria; type: biochemical, human; conditions: 1 μM, 30 min, 30 °C
Method: Figure 3 Bak is required for BKA-073 induction of mitochondrial priming, Cyt c release and apoptotic cell death. (A) Levels of Bak and Bax were analyzed by Western blot in parental, Bak ^-/-, Bax ^-/- or Bax/Bak double-knockout (DKO) A549 cells. (B-C) Parental, Bak ^-/-, Bax ^-/- or DKO A549 cells were treated with BKA-073 (1μM) for 16h or 72h, followed by analysis of dynamic BH3 profiling (B) or apoptotic cell death (C), respectively. Data represent the mean ± SD, n = 3 per group. ***P < 0.001, by 2-tailed t test. (D) Parental, Bak ^-/-, Bax ^-/- or DKO A549 cells were treated with BKA-073 (1μM) for 24 h. Mitochondrial and cytosolic fractions were isolated. Levels of Cyt c in these two fractions were analyzed by western blot. (E) Mitochondria were isolated from parental, Bak ^-/-, Bax ^-/- or DKO A549 cells. The isolated mitochondria were then treated with BKA-073 (1μM) in mitochondrial buffer for 30 min at 30 °C. After centrifugation, Cyt c in supernatant fraction (i.e. Cyt c release) and Cyt c in mitochondrial pellet were analyzed by western blot.
To further test whether Bak is required for BKA-073 induction of Cyt c release, A549 parental, Bak^-/-, Bax^-/- and DKO cells were treated with BKA-073 (1 μM) for 24h, followed by analysis of Cyt c release from mitochondria. […] After centrifugation at 13000 g for 5 min, Cyt c in the supernatant (i.e., Cyt c release) was analyzed by Western blot.

A549 cells = assay: Apoptotic cell death assay (Annexin V/PI); type: cell-based, human
From the text: Supplemental Materials and Methods
Small molecule NSC14073 (BKA-073) was obtained from the Drug Synthesis and Chemistry Branch, Developmental Therapeutic Program, Division of Cancer Treatment and Diagnosis, National Cancer Institute (NCI, Bethesda, MD) (http://dtp.nci.nih.gov/RequestCompounds).
Venetoclax (ABT-199, 205807) was purchased from MedKoo Biosciences (Morrisville, NC).
Antibodies including PARP (sc-8007), Bax (sc-7480), Mcl-1 (sc-12756), cytochrome c (sc-13156) and actin (sc-47778) were purchased from Santa Cruz (Santa Cruz, CA). Bcl2 antibody (05-826) was obtained from Calbiochem (Darmstadt, Germany). Bcl-XL (ab32370), Bak (ab32371) and Bax (ab104156) antibodies were purchased from Abcam (Cambridge, MA).
Active caspase 3 (9579S) and Mcl-1 (94296S) antibodies were purchased from Cell Signaling Technology (Danvers, MA). Fluorescent Bak BH3 domain peptide (FAM-GQVGRQLAIIGDDINR) and purified Bcl-XL protein were purchased from NeoBioSciTM (Cambridge, MA). Bim BH3 peptide (AS-62278) was obtained from AnaSpec, Inc. (Fremont, CA). Purified recombinant human Bak protein (BAK1-26166TH) was purchased from Creative Biomart (Shirley, NY). Purified recombinant human Bax protein (H00000581-P01) was obtained from Novus Biologicals (Littleton, CO) and purified human Bcl-XL protein (SRP0187) was purchased from Sigma-Aldrich (St. Louis, MO). Purified human Bcl2 protein was obtained from ProteinX Lab (San Diego, CA). Purified recombinant human Mcl-1 protein (GWB-P0342D) was purchased from GenWay Biotech, Inc. (San Diego, CA). Purified recombinant human Bcl-w (824-BW-050) protein was obtained from R&D systems (Minneapolis, MN). Bis (maleimido) hexane (BMH) (22330) was purchased from Thermo Scien tific (Rockford, IL). JC -1 (ENZ-52304) was obtained from Enzo Life Sciences, Inc. (Farmingdale, NY). All other reagents used were obtained from commercial sources unless otherwise stated. […]
Apoptotic cell death assay
Apoptotic cells were detected using Annexin-V Apoptosis Detection Kit (556547, BD Biosciences, San Jose, CA) according to the manufacturer’s instructions. After treatment with BKA-073 or other agent(s) for 72h, cells were washed twice with cold 1x PBS and then resuspended in 1 x Binding Buffer at a concentration of 1 x 10^6 cells/ml. 100 μl of the solution […]
(1 x 10^5 cells) was transferred to a 5 ml culture tube, followed by the addition of 5 μl of FITC Annexin V and 5 μl propidium iodide (PI). The cells were gently vortexed and incubated for 15 min at RT (25°C) in the dark. 400 μl of 1x binding buffer was added to each tube. […]
mM DTT] in black 96-well microplates. The plate was mixed o n a shaker for 1 minute and incubated at room temperature for an additional 15 minutes. The FP values (in millipolarization units) were measured using a fluorescence microplate reader at 485/530 nm (Gemini XPS, Molecular Devices). Data analysis and inhibit ory constant (Ki) value was determined by GraphPad prism software as described.
Cloning, protein expression and purification of mouse B ak protein
The clone pMIH-mRuby2-mouse Bak (#111627) for generation of mouse Bak protein was obtained from Addgene (Watertown, MA). The mouse Bak cDNA was cloned into pET29b expression vector between BglII and XhoI sites as His tag fusions. The BL21 DE3 Escherichia coli containing plasmid was grown at 37°C in LB (Luria-Bertani) media. The protein expression was induced with IPTG (0.2 mM) at 18°C for 16 h when the density reached an OD600 of 0.6.
Bacteria were then harvested and resuspended in 30 ml buffer A (20 mM Tris, pH 8.0, 120 mM NaCl, 10% glycerol, and protease inhibitor cocktail) and lysed by sonication. The lysate was centrifuged at 14,000 rpm for 30 min. The resulting supernatant was incubated with HisPur Cobalt Resin (Thermo Scientific) at 4 °C for 2h. After washing wi th buffer A, His-tagged mouse Bak proteins was eluted with buffer B (20 mM Tris, pH 8.0, 120 mM NaCl, 300 mM imidazole, 10% glycerol with protease inhibitor). The elution peak of interest was checked by SDS -PAGE […]

Structure (SMILES): COc1ccc2nc3ccccc3c(NCCNCC(C)O)c2c1 (stereo not shown) [BKA-073]
- Cyt c release from isolated mitochondria ([1]; mitochondria from A549 Bax-/- cells): induced Cyt c release
- Cyt c release from isolated mitochondria ([1]; mitochondria from A549 parental cells): induced Cyt c release
- induction of apoptotic cell death (A549 cells; 0, 0.25, 0.5, 0.75, 1.0 µM, 72h): in a dose-dependent manner
- sensitivity (DBP and apoptosis) (A549 cells; A549 Bak-/- cells expressing A79E Bak, 1 µM): completely or partially restored sensitivity
- sensitivity (DBP and apoptosis) (A549 cells; A549 Bak-/- cells expressing D83E Bak, 1 µM): failed to restore sensitivity
- sensitivity (DBP and apoptosis) (A549 cells; A549 Bak-/- cells expressing I80E Bak, 1 µM): completely or partially restored sensitivity
- sensitivity (DBP and apoptosis) (A549 cells; A549 Bak-/- cells expressing N86E Bak, 1 µM): failed to restore sensitivity
- sensitivity (DBP and apoptotic cell death) (A549 cells; A549 Bak-/- cells expressing exogenous WT Bak, 1 µM): restored sensitivity
- sensitivity (DBP and apoptotic cell death) (A549 cells; A549 Bak-/- cells expressing ΔBH3 mutant Bak, 1 µM): failed to restore sensitivity
- sensitivity (DBP and apoptotic cell death) (A549 cells; A549 Bak-/- cells transfected with vector-only, 1 µM): resistant
- apoptotic cell death (A549 cells; Bak-/- A549 cells): ~ 20%
- sensitivity (DBP and apoptotic cell death) (A549 cells; Bak-/- A549 cells, 1μM, 16h or 72h): significant resistance
- sensitivity (DBP and apoptotic cell death) (A549 cells; Bax-/- A549 cells, 1μM, 16h or 72h): sensitive
- apoptotic cell death (A549 cells; DKO A549 cells): ~ 20%
- sensitivity (DBP and apoptotic cell death) (A549 cells; DKO A549 cells, 1μM, 16h or 72h): significant resistance
- sensitivity (DBP and apoptotic cell death) (A549 cells; parental A549 cells, 1μM, 16h or 72h): sensitive
